The values that follow come from patent US6699868B2, “Pyridazinyl phenyl hydrazones useful against congestive heart failure” (Orion Corporation, priority 2000, dated 2004).

Structures are written as SMILES.

As usually defined, the melting point is the temperature, or range, at which the solid turns liquid. Regarding `CC1CC(=O)NN=C1c1ccc(NN=Cc2ccc([N+](=O)[O-])cc2)cc1` (centres unmarked) [Example 52, 6-{4-[N′-(4-nitrobenzylidene)-hydrazino]-phenyl}-5-methyl-4,5-dihydro-2H-pyridazin-3-one], the melting point lay in the range of 216 to 217 °C.

In turn, `CCc1c(O)ccc(C=NNc2ccc(-c3ccc(=O)n(C)n3)cc2)c1O` [Example 28, 6-{4-[N′-(2,4-Dihydroxy-3-ethylbenzylidene)hydrazino]phenyl}-2-methyl-2H-pyridazin-3-one] showed a melting point of 262 to 266 °C.

On to `CC1CC(=O)NN=C1c1ccc(NN=Cc2ccc(S(C)(=O)=O)cc2)cc1` (centres unmarked) [Example 19, 6-{4-[N′-(4-Methanesulfonylbenzylidene)hydrazino]phenyl}-5-methyl-4,5-dihydro-2H-pyridazin-3-one], for which the melting point was 130 to 137 °C.

Consider `CC1CC(=O)NN=C1c1ccc(NN=Cc2c([N+](=O)[O-])cccc2[N+](=O)[O-])cc1` (centres unmarked), for which the melting point was 216 to 218 °C.

The molecule `CC1CC(=O)NN=C1c1ccc(NN=Cc2ccccc2[N+](=O)[O-])cc1` (centres unmarked) [Example 58, 6-{4-[N′-(2-nitro-benzylidene)-hydrazino]-phenyl}-5-methyl-4,5-dihydro-2H-pyridazin-3-one] showed a melting point of 250 to 253 °C.

On to `COc1ccc(CCC(=NNc2ccc(C3=NNC(=O)CC3C)cc2)c2ccc(O)cc2O)cc1OC` (centres unmarked) [Example 14, 6-(4-{N′-[1-(2,4-Dihydroxy-phenyl)-3-(3,4-dimethoxy-phenyl)-propylidene]-hydrazino}-phenyl)-5-methyl-4,5-dihydro-2H-pyridazin-3-one], for which the melting point was 135 to 140 °C.

For `CC1CC(=O)NN=C1c1ccc(NN=Cc2ccc(O)cc2)cc1` (centres unmarked) [Example 61, 6-{4-[N′-(4-Hydroxy-benzylidene)-hydrazino]-phenyl}-5-methyl-4,5-dihydro-2H-pyridazin-3-one], the melting point is 258 to 261 °C.

`CCC1CC(=O)NN=C1c1ccc(NN=Cc2ccc(O)cc2O)cc1` (centres unmarked) [Example 36, 6-{4-[N′-(2,4-Dihydroxy-benzylidene)-hydrazino]-phenyl}-5-ethyl-4,5-dihydro-2H-pyridazin-3-one] displayed a melting point of 270 to 275 °C.

`CC1CC(=O)NN=C1c1ccc(NN=Cc2ccc(Cl)cc2Cl)cc1` (centres unmarked) [Example 42, 6-{4-[N′-(2,4-Dichloro-benzylidene)-hydrazino]-phenyl}-5-methyl-4,5-dihydro-2H-pyridazin-3-one] registered a melting point of 252 to 254 °C.

Molecule `COc1cccc(C=NNc2ccc(C3=NNC(=O)CC3C)cc2)c1O` (centres unmarked) [Example 57, 6-{4-[N′-(2-Hydroxy-3-methoxy-benzylidene)-hydrazino]-phenyl}-5-methyl-4,5-dihydro-2H-pyridazin-3-one] displayed a melting point of 210 to 213 °C.

`CC1CC(=O)NN=C1c1ccc(NN=Cc2cc(O)ccc2O)cc1` (centres unmarked) [Example 8, 6-{4-[N′-(2,5-Dihydroxy-benzylidene)-hydrazino]-phenyl}-5-methyl-4,5-dihydro-2H-pyridazin-3-one] displayed a melting point of 317 to 320 °C.

`Cn1nc(-c2ccc(NN=Cc3ccc(O)cc3O)cc2)ccc1=O` [Example 25, 6-{4-[N′-(2,4-Dihydroxybenzylidene)hydrazino]phenyl}-2-methyl-2H-pyridazin-3-one] gave a melting point of 304 to 306 °C.

`CC1CC(=O)NN=C1c1ccc(NN=Cc2ccccc2C(F)(F)F)cc1` (centres unmarked) [Example 11, 6-{4-[N′-(2-trifluoromethyl-benzylidene)-hydrazino]-phenyl}-5-methyl-4,5-dihydro-2H-pyridazin-3-one] had a melting point of 113 to 115 °C.

Consider `CC1CC(=O)NN=C1c1ccc(NN=Cc2ccc([N+](=O)[O-])cc2[N+](=O)[O-])cc1` (centres unmarked), for which the melting point was 278 to 280 °C.

Take `COc1c(O)ccc(C=NNc2ccc(-c3n[nH]c(=O)cc3C)cc2)c1[N+](=O)[O-]` [Example 22, 6-{4-[N′-(4-Hydroxy-3-methoxy-2-nitrobenzylidene)hydrazino]phenyl}-5-methyl-2H-pyridazin-3-one]: the melting point fell in the range of 264 to 268 °C.

`CCCCc1c(O)ccc(C=NNc2ccc(C3=NNC(=O)CC3C)cc2)c1O` (centres unmarked) [Example 44, 6-{4-[N′-(3-Butyl-2,4-dihydroxy-benzylidene)-hydrazino]-phenyl}-5-methyl-4,5-dihydro-2H-pyridazin-3-one] gave a melting point of 218 °C.

Turning to `COc1ccc(C=NNc2ccc(C3=NNC(=O)CC3C)cc2)cc1` (centres unmarked) [Example 55, 6-{4-[N′-(4-Methoxy-benzylidene)-hydrazino]-phenyl}-5-methyl-4,5-dihydro-2H-pyridazin-3-one], the melting point lay within 172 to 174 °C.

In the case of `COc1ccccc1C=NNc1ccc(C2=NNC(=O)CC2C)cc1` (centres unmarked) [Example 53, 6-{4-[N′-(2-Methoxy-benzylidene)-hydrazino]-phenyl}-5-methyl-4,5-dihydro-2H-pyridazin-3-one], the melting point was 180 to 183 °C.

Consider `CC1CC(=O)NN=C1c1ccc(C(=NN)c2cccc(C#N)c2)cc1` (centres unmarked) [Example 20, 3-{[4-(4-Methyl-6-oxo-1,4,5,6-tetrahydropyridazin-3-yl)phenyl]-hydrazonomethyl}-benzonitrile], for which the melting point was 220 to 224 °C.

`CC1CC(=O)NN=C1c1ccc(NN=Cc2ccccc2O)cc1` (centres unmarked) [Example 54, 6-{4-[N′-(2-Hydroxy-benzylidene)-hydrazino]-phenyl}-5-methyl-4,5-dihydro-2H-pyridazin-3-one] gave a melting point of 265 to 268 °C.

In turn, `CC(=NNc1ccc(C2=NNC(=O)CC2C)cc1)c1cc(O)cc(O)c1` (centres unmarked) [Example 13, 6-(4-{N′-[1-(3,5-Dihydroxy-phenyl)-ethylidene]-hydrazino}-phenyl)-5-methyl-4,5-dihydro-2H-pyridazin-3-one] yielded a melting point of 162 to 166 °C.

As to `CC1CC(=O)NN=C1c1ccc(NN=C(CCC(=O)O)c2ccc(O)cc2O)cc1` (centres unmarked) [Example 64, 4-(2,4-Dihydroxy-phenyl)-4-{[4-(4-methyl-6-oxo-1,4,5,6-tetrahydro-pyridazin-3-yl)-phenyl]-hydrazono}-butyric acid], the melting point was in the range of 299 to 302 °C.

`Cn1nc(-c2ccc(NN=C(CCC(=O)O)c3ccc(O)cc3O)cc2)ccc1=O` [Example 29, 4-(2,4-Dihydroxyphenyl)-4-{[4-(1-methyl-6-oxo-1,6-dihydropyridazin-3-yl)phenyl]hydrazono}butyric acid] came in with a melting point of 138 to 141 °C.

Molecule `O=c1[nH]nc(-c2ccc(NN=C(c3ccc(O)cc3O)c3ccc(O)cc3O)cc2)c2ccccc12` [Example 17, 4-(4-{N′-[Bis-(2,4-dihydroxy-phenyl)-methylene]-hydrazino}-phenyl)-2H-phthalazin-1-one] came in with a melting point of 140 to 146 °C.

`CC1CC(=O)NN=C1c1ccc(C(=NN)c2ccccc2C(=O)O)cc1` (centres unmarked) [Example 10, 2-{[4-(4-Methyl-6-oxo-1,4,5,6-tetrahydro-pyridazin-3-yl)-phenyl]-hydrazonomethyl}-benzoic acid] yielded a melting point of 250 to 251 °C.

Take `CC1CC(=O)NN=C1c1ccc(NN=Cc2cccc(O)c2O)cc1` (centres unmarked) [Example 7, 6-{4-[N′-(2,3-Dihydroxy-benzylidene)-hydrazino]-phenyl}-5-methyl-4,5-dihydro-2H-pyridazin-3-one]: the melting point fell in the range of 245 to 247 °C.
